The values that follow are results of earlier work, collected in patent US6211364A, “Process for preparing indane-like compounds” (Eli Lilly and Company, priority 1999, dated 2001).

Like-named read-outs stand apart in the source and are kept apart here.

The test system of series [1] is M1 -site muscarinic receptors. The following applies: M1 -site versus M2 -sites; cited from earlier work.
In another series the target is muscarinic receptor. The following applies: muscarinic receptor in the CNS, cited from earlier work.

`CN1CCN(CC(=O)N2c3ccccc3C(=O)Nc3cccnc32)CC1` [Pirenzepine, pirenzepine, [N-methyl-^3 H]]: the “selectivity of pirenzepine binding for muscarinic receptor subtype” value in series [1] was “selective for M1 -sites”.
For the compound `C[N+](C)(C)CC#CCN1CCCC1=O` [3 H-Oxo], the Kd on muscarinic receptor (high affinity site, read-out: affinity of 3H-Oxo, first of three labeled sites) was 0.0018 µM; on muscarinic receptor (medium affinity site, read-out: affinity of 3H-Oxo, second of three labeled sites), 0.02 µM; on muscarinic receptor (third site, not determined under the present conditions, read-out: affinity of 3H-Oxo, third of three labeled sites), 3 µM.
